# Molecular target: Rho-associated protein kinase 1 (Homo sapiens, UniProt Q13464)
# Test: In Vitro Assay
# Settings: pH 7.5
# Chain of Rho-associated protein kinase 1 (Q13464 whole entry): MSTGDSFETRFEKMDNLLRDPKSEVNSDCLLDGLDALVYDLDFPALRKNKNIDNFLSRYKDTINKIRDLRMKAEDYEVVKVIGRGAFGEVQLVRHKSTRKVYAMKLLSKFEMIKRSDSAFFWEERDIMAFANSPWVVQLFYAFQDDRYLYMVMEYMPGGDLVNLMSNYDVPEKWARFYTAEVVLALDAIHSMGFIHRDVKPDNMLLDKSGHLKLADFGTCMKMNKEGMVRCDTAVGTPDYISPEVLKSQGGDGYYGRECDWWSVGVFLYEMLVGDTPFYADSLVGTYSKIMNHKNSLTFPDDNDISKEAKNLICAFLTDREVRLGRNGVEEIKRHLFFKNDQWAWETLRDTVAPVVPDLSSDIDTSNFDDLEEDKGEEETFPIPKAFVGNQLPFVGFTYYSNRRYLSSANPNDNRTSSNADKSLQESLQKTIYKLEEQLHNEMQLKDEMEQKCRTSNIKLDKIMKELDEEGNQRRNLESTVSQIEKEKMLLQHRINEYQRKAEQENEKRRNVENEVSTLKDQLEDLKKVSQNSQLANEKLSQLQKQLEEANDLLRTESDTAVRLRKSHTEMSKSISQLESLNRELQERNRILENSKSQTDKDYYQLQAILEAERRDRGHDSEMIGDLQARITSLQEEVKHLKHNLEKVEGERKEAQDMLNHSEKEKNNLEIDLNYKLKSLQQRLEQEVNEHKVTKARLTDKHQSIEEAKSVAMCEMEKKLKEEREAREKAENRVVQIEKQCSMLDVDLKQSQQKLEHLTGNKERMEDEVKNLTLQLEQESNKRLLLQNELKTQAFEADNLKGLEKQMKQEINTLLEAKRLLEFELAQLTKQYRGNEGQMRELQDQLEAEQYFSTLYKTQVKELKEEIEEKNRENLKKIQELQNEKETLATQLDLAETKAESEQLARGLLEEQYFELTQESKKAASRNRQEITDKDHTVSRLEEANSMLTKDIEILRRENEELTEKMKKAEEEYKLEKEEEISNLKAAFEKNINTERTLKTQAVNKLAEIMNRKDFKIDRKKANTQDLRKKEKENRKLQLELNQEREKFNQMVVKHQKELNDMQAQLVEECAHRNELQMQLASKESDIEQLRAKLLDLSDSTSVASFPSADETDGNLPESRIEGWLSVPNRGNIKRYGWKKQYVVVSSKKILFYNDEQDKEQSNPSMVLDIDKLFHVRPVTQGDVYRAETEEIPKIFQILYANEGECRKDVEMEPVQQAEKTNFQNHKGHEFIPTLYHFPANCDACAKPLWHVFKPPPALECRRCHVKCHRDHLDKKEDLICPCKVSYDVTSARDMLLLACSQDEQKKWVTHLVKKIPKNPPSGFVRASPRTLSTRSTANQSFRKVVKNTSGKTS
compound,measurement,value
"CNC(=O)C[C@@H](NC(=O)c1ccc(-c2cn[nH]c2)c(C)c1)c1ccccc1 [US9458110, 252]",IC50,41.1 nM
